Data from patent US9150528B2, “Compound having detrusor muscle-contracting activity and urethral sphincter muscle-relaxing activity” (ONO PHARMACEUTICAL CO., LTD., priority 2009, dated 2015).

Legend:
[1] = Parallel artificial membrane permeability assay (PAMPA); type: in vitro ADME; details: sum of pH 5.0, 6.2 and 7.4, 25° C., read-out: membrane permeability coefficients (PAMPA(SUM))
Method: The permeability of the drugs through artificial membranes was measured by parallel artificial membrane permeability assay (PAMPA) under the following conditions. For the measurements, a PAMPA system (pION) was used. The membrane permeability was evaluated by measuring membrane permeability coefficients at three pH values and summing the values (PAMPA(SUM)(cm/sec)).
Lipid membrane: GIT-0 (pION)
Incubation temperature: 25° C.
Donor: 5% DMSO-containing buffer
Compound concentration: 50 μmol/L

urethral sphincter = experiment: Relaxation of isolated rat urethra specimens (Magnus system), phenylephrine-induced contraction; type: cell-based; details: for Contractility of the urethral sphincter according to the compound concentration treated: rat urethra specimen
Method: Rats were anesthetized with pentobarbital, followed by abdominal incision to remove the bladders and the urethras. The bladder bodies were cut in the longitudinal direction to prepare strip specimens with a size of about 10×3 mm. Additionally, each of the urethras was also cut in the longitudinal direction to prepare specimens with a size of about 10×3 mm. The prepared specimens were suspended in Krebs buffer (37° C., 5 mL), which was aerated with a mixed gas of 95% O2 and 5% CO2. The tension values of the specimens were measured using a Magnus system equipped with an isometric transducer and an amplifier, and the measured values were recorded on a computer via a data collection system.
The specimens were suspended with a load of about 0.5 g. More than 1 hr later, potassium chloride (100 mmol/L) was added to the suspension and the maximal contraction response was observed. After washing with Krebs buffer, the specimens were suspended with a load of about 0.5 g for stabilization. Thereafter, a phenylephrine (100 μmol/L) was added to the suspension to induce the contraction of the specimens. After stabilization of the contraction-inducing response, the test compound was added in a cumulative manner and the response was observed before and after the treatment of the drug.

[2] = Systemic clearance after intravenous administration; type: in vivo; details: plasma, cynomolgus monkey, 0.001 mg/mL/kg
Method: Equimolar sodium hydroxide and injectable distilled water were added to each of the test compounds to prepare a 1 mg/mL aqueous solution. The aqueous solution was diluted with physiological saline until the concentration reached 0.001 mg/mL and was rapidly administered at a dose of 0.001 mg/mL/kg to cynomolgus monkey through the cephalic vein. Via heparinized syringes, 2 min, 5 min, 15 min, 30 min, 1 hr, 2 hr, 4 hr, 6 hr, 8 hr and 24 hr after administration, blood was drawn from the cephalic vein (non-administered sites). After centrifugation, blood plasma was sampled and stored at −80° C. before pretreatment. The blood plasma was pretreated by mixing with acetonitrile and centrifuging to remove proteins followed by measurement by LC/MS/MS. Changes of concentration in blood plasma was analyzed using WinNonlin4.0.1 to evaluate the systemic clearance of the test compound.

[3] = test system: underactive bladder models; experiment: Residual urinary volumes and bladder capacities in underactive bladder models (cystometry); type: in vivo, rat; details: 0.01 mg/kg, oral, underactive bladder model rats
Method: The underactive bladder models were constructed in accordance with the following procedure. Female Wistar rats (8 to 9 weeks age) were anesthetized by intraperitoneal administration of Somnopentyl (40 mg/kg), followed by dorsal shaving, and fixed in abdominal positions. Each of the dorsal areas was disinfected with chlorhexidine gluconate (5% hibitane liquid). The waist area was median-incised to expose the spinal column. After excision of the fifth lumbar spinous process, a silicone rubber was inserted into the sixth lumbar direction from a hole bored by a mini drill. For the purpose of avoiding infections, after completion of the surgical operation, benzylpenicillin potassium (25000 U/0.25 mL/body) was added dropwise to the incised area. The muscle and skin of the incised area were sutured with silk threads, and iodine tincture was applied to the sutured area. After the operation, maintenance of voiding was carried out by manual compressions three times daily. For the purpose of avoiding infections, potassium penicillin G (1.25 units/body) was administered subcutaneously. More than 5 days prior to cystometric evaluation, a catheter for cystometrogram was indwelled in the bladder. Anesthesia with sodium pentobarbital (40 mg/kg by intraperitoneal administration) and incision along the midline of the abdomen were carried out, followed by incision of the apex of the bladder. A catheter for cystometrogram filled with physiological saline was inserted into the bladder from a hole of the apical area, and fixed by ligation using silk suture threads. […]
The rats were anesthetized with ether and housed in a Bollmann cage 2 weeks after the construction of the models. To the front end of each of the bladder catheters, a pressure transducer via a three-way cock was connected, and the intravesical pressure was recorded using a strain pressure amplifier•recorder. […]
[…] After 1 hr, physiological saline was perfused into the bladder at a flow rate of 2 mL/h and voiding parameters (bladder capacity and residual urinary volume) were measured. […] Voiding parameters were calculated for each cystometry. […]

normal rats = experiment: Blood pressures and heart rates in normal rats; type: in vivo, rat; details: oral
Method: The blood pressures and heart rates of female Wistar rats were measured in accordance with the following procedure. On the day of measurement, indwelling of catheters for blood pressure•heart rate measurement was carried out under anesthesia with ether. The back of the neck of each rat was incised; a feeding catheter (Atom Medical Corporation) filled with heparinized physiological saline was introduced from the back of the neck; the catheter was inserted into the common carotid artery; and the surgical incision was closed. The measurements were carried out in a Bollmann cage under the conscious state, and the evaluations were carried out after confirming that the individual parameters were stabilized. After confirming the stabilization of blood pressure and heart rate, the test compound which was prepared using injectable water containing equimolar NaOH was orally administered at a dose of 5 mL/kg.
The catheter drawn from the back of the neck was connected to a pressure transducer (DX-200, NIHON KOHDEN CORP.), and the blood pressures and heart rates were measured using an amplifier for pressure measurement (Gould Instrument). The blood pressures and heart rates were recorded using a recorder (LINEARCORDERWR3320, GRAPHTEC). For each individual, rates of increase and decrease in average blood pressure and heart rate before administration and 30, 60, 120, and 180 min after administration were calculated with respect to the values of each individual before administration. Changes in blood pressure and heart rate before and after administration of the test compound were evaluated.

- Papp at 4 hr, 50 μmol/L [1]: 59.3 ×10⁻⁶ cm/s
- clearance [2]: 3.6 mL/min/kg
- bladder capacity ([3]; versus normal group): no effect
Compound: C[C@@](O)(C/C=C/[C@H]1CCC(=O)[C@@H]1CCSc1nc(C(=O)O)cs1)CCC(F)=C(F)F [Compound 17, 2-[(2-{(1R,5R)-2-oxo-5-[(1E,4S)-7,8,8-trifluoro-4-hydroxy-4-methyl-1,7-octadien-1-yl]cyclopentyl}ethyl)thio]-1,3-thiazole-4-carboxylic acid]
- Contractility of the urethral sphincter according to the compound concentration treated (urethral sphincter; 0 nmol/L): 5 % of phenylephrine
- Contractility of the urethral sphincter according to the compound concentration treated (urethral sphincter; 1 nmol/L): −2 % of phenylephrine
- Contractility of the urethral sphincter according to the compound concentration treated (urethral sphincter; 10 nmol/L): −9 % of phenylephrine
- Contractility of the urethral sphincter according to the compound concentration treated (urethral sphincter; 100 nmol/L): −36 % of phenylephrine
- Contractility of the urethral sphincter according to the compound concentration treated (urethral sphincter; 1 μmol/L): −83 % of phenylephrine
- Contractility of the urethral sphincter according to the compound concentration treated (urethral sphincter; 10 μmol/L): −89 % of phenylephrine
- effect on the urethral sphincter (urethral sphincter; summary in words of Table 2): relaxed the urethral sphincter
- residual urinary volume ([3]; versus vehicle group): significant reduction
- effect on the blood pressure (normal rats; 0.3 mg/kg): no effect
- effect on the heart rate (normal rats; 0.3 mg/kg): no effect
- effect on the blood pressure (normal rats; 1 mg/kg): no effect
